Columns and labels:
[1] = molecular target: T1, cysteines in MDA-MB-231 and Ramos cells (Homo sapiens, UniProt Q29RF7); experiment: Competitive isoTOP-ABPP in situ (fragment-treated cells); format: cell-based
T1 sequence (Q29RF7 1-1337): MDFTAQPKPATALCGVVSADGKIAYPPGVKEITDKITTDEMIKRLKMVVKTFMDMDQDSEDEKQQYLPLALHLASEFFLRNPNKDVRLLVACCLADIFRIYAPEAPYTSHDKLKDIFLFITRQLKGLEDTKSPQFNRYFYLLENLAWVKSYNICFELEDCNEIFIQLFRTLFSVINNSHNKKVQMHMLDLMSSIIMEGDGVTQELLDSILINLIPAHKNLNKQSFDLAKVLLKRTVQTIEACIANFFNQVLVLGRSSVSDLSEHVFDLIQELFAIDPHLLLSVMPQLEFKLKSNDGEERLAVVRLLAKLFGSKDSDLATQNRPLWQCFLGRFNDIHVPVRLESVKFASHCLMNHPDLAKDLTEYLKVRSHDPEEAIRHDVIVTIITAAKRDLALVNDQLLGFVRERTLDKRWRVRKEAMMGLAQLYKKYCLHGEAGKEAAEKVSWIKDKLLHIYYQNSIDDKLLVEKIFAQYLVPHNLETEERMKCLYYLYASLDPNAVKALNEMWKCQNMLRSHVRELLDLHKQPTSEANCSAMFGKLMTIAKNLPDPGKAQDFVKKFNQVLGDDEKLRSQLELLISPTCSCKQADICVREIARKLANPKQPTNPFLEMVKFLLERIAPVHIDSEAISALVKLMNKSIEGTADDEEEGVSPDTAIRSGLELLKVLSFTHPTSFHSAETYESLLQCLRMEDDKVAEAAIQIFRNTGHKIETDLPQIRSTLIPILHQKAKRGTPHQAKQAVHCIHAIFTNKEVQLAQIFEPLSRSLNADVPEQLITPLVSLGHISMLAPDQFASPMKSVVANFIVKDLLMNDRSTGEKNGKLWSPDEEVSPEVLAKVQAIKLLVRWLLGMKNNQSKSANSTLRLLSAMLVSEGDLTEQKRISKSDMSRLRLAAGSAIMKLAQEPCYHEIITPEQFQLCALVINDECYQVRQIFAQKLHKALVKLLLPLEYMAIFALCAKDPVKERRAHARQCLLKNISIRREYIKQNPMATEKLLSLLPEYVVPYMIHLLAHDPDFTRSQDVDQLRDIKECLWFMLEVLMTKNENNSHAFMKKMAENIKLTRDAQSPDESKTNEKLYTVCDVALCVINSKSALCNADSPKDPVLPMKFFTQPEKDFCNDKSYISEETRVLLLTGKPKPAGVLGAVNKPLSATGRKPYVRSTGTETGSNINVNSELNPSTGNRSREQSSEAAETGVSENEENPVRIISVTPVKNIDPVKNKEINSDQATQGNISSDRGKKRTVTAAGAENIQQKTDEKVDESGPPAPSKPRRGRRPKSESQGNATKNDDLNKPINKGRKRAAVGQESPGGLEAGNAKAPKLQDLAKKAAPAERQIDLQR

[2] = molecular target: T2, cysteines in MDA-MB-231 and Ramos cells (Homo sapiens, UniProt P11216); experiment: as above; format: cell-based
T2 sequence (P11216 1-843): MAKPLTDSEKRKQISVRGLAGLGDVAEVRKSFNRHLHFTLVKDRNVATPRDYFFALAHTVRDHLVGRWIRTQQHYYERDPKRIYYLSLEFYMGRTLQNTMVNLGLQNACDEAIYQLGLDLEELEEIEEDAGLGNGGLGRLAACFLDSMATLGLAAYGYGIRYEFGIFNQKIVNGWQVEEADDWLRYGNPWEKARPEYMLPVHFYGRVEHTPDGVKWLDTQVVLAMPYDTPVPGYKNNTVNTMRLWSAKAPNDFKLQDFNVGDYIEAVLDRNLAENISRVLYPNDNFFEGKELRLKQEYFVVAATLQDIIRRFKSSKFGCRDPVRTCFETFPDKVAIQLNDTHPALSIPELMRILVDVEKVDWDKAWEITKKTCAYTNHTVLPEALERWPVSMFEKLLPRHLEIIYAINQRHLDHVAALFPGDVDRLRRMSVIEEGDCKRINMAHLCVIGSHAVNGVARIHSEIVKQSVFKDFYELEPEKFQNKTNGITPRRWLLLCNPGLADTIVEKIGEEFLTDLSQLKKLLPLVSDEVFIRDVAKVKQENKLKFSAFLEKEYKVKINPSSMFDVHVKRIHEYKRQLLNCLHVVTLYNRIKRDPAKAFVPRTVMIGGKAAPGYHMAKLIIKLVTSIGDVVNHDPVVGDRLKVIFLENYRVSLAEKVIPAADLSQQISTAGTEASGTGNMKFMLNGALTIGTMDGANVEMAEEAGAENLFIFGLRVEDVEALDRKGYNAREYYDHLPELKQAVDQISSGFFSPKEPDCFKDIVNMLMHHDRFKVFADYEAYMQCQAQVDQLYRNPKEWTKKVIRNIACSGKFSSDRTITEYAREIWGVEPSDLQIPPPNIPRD

With CC(C)CCOCCNC(=O)CCl [compound 27] the “isoTOP-ABPP ratio Q29RF7_C242” value ([1]; 200 μM, insitu, 231) was 0.9 and the “isoTOP-ABPP ratio P11216_C326” value ([2]; 200 μM, insitu, 231) was 0.7.

COc1cc2c(cc1OC)CN(C(=O)CCl)CC2 [compound 8] was tested, and the “isoTOP-ABPP reactivity Q29RF7_C242 PDS5A” value ([1]; 200 μM, insitu, 231) was 1.0 and the “isoTOP-ABPP reactivity P11216_C326 PYGB” value ([2]; 200 μM, insitu, 231) was 20.0.

With COc1ccc(C2CC(c3cccs3)=NN2C(=O)CCl)cc1 (centres unmarked) [compound 4] the “isoTOP-ABPP reactivity Q29RF7_C242 PDS5A” value ([1]; 100 μM in situ 231) was 3.0, the “isoTOP-ABPP reactivity Q29RF7_C532 PDS5A” value ([1]; 100 μM in situ 231) was 20.0 and the “isoTOP-ABPP reactivity P11216_C326 PYGB” value ([2]; 100 μM in situ 231) was 1.7.

With O=C(CCl)Nc1cccc2ncccc12 [compound 51] the “isoTOP-ABPP ratio Q29RF7_C242” value ([1]; 200 μM, insitu, 231) was 1.8 and the “isoTOP-ABPP ratio P11216_C326” value ([2]; 200 μM, insitu, 231) was 0.8.

With COc1ccccc1OCCNC(=O)CCl [compound 28] the “isoTOP-ABPP ratio Q29RF7_C242” value ([1]; 200 μM, insitu, 231) was 1.0.

O=C(CCl)N1CCN(S(=O)(=O)c2ccccc2F)CC1 [compound 10] was tested, and the “isoTOP-ABPP ratio, cysteine Q29RF7_C532” value ([1]; 200 μM, insitu, 231) was 20.0 and the “isoTOP-ABPP ratio P11216_C326” value ([2]; 200 μM, insitu, 231) was 8.6.

In the case of CC1CCc2ccccc2N1C(=O)CCl (centres unmarked) [compound 45], the “isoTOP-ABPP ratio P11216_C326” value ([2]; 200 μM, insitu, 231) is reported as 5.3.

With Cc1ccc(C=C(C#N)C(=O)NCCN2CCOCC2)cc1 [compound 41] the “isoTOP-ABPP ratio Q29RF7_C532” value ([1]; 200 μM, insitu, 231) was 0.8 and the “isoTOP-ABPP ratio P11216_C326” value ([2]; 200 μM, insitu, 231) was 0.7.

With C=CC(=O)Nc1cc(F)c(N2CCN(C(=O)OC(C)(C)C)CC2)c(F)c1 [compound 38] the “isoTOP-ABPP ratio Q29RF7_C242” value ([1]; 200 μM, insitu, 231) was 1.0 and the “isoTOP-ABPP ratio P11216_C326” value ([2]; 200 μM, insitu, 231) was 1.2.

In the case of O=C(CCl)NC(=O)NC12CC3CC(CC(C3)C1)C2 [compound 12], the “isoTOP-ABPP ratio, cysteine Q29RF7_C242” value ([1]; 200 μM, insitu, 231) is reported as 12.9 and the “isoTOP-ABPP ratio P11216_C326” value ([2]; 200 μM, insitu, 231) is reported as 3.9.

For C=CC(=O)N(Cc1cccnc1)c1cc(C(F)(F)F)cc(C(F)(F)F)c1 [compound 31], the “isoTOP-ABPP ratio Q29RF7_C532” value ([1]; 200 μM, insitu, 231) was 5.1, the “isoTOP-ABPP ratio Q29RF7_C532” value ([1]; 200 μM, insitu, ramos) was 8.1 and the “isoTOP-ABPP ratio P11216_C326” value ([2]; 200 μM, insitu, 231) was 0.5.

Cn1cc(S(=O)(=O)N2CCOCC2)cc1C(=O)NC(=O)CCl [compound 11] was tested, and the “isoTOP-ABPP ratio, cysteine Q29RF7_C242” value ([1]; 100 μM in situ 231) was 0.9 and the “isoTOP-ABPP ratio P11216_C326” value ([2]; 100 μM in situ 231) was 0.8.

In the case of O=C(CCl)NCCc1c[nH]c2ccccc12 [compound 13], the “isoTOP-ABPP ratio, cysteine Q29RF7_C532” value ([1]; 200 μM, insitu, ramos) is reported as 2.0 and the “isoTOP-ABPP ratio P11216_C326” value ([2]; 200 μM, insitu, 231) is reported as 1.3.

O=C(CCl)NC12CC3CC(CC(C3)C1)C2 [compound 21] was tested, and the “isoTOP-ABPP ratio, cysteine Q29RF7_C242” value ([1]; 200 μM, insitu, 231) was 0.9 and the “isoTOP-ABPP ratio P11216_C326” value ([2]; 200 μM, insitu, 231) was 0.9.

In the case of O=C(CCl)N1CCC(Cc2ccccc2)CC1 [compound 9], the “isoTOP-ABPP reactivity P11216_C326 PYGB” value ([2]; 200 μM, insitu, 231) is reported as 2.6.
